The values below come from patent US9023789B2, “Amylin analogs and pharmaceutical compositions thereof” (Novo Nordisk A/S, priority 2012, dated 2015).

Experiment [1] concerns the target T1, human calcitonin (a) receptor in BHK570 cells (Homo sapiens, UniProt P30988).
T1 construct: expressed in transfected cells
T1 sequence (P30988 25-474): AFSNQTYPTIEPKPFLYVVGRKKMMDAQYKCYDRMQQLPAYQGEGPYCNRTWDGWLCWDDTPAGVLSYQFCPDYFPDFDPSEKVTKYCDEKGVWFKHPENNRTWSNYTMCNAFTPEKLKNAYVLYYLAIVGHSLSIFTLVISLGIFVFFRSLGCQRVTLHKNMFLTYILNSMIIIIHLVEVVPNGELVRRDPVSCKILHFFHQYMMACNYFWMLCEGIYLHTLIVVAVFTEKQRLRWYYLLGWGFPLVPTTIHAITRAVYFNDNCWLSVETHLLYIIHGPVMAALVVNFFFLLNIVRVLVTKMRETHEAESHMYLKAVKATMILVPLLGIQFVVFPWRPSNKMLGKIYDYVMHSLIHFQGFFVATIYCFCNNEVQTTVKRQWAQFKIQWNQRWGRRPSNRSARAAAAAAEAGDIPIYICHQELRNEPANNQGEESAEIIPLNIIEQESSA
In words: ASSAY (II)a functional assay, human calcitonin receptor (CRE luciferase). The class given is cell-based. The note with it: read-out: hCTR funct. EC50. In short, it runs like this:
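Readout is luminescence from a cAMP-responsive CRE-luc reporter, developed with LucLite for 30 min at room temperature. Cells were treated for 3 h at 37 °C in 10% FBS/DMEM buffered with 10 mM Hepes (pH 7.4).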

Experiment [2] deals with T2, human calcitonin receptor (Homo sapiens, UniProt P30988).
T2 construct: expressed in transfected cells
T2 sequence (P30988 25-474): T1 sequence (P30988 25-474)
Put plainly: ASSAY (VII) binding to the human calcitonin receptor (SPA, 125I-Calcitonin).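 Also: cell membranes (35 ng/µL) combined with SPA beads in 40 µL of pH 7.4 Hepes buffer, 384-well format, signal counted on a TopCounter instrument.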 The conditions noted are these: read-out: hCTR bind IC50.

Experiment [3] addresses T3, rat amylin receptor (rat calcitonin receptor + rat RAMP 3) (Rattus norvegicus, UniProt P32214+Q9JJ73).
T3 construct: expressed in transfected cells; host or cells: BHK tk'ts 13 (transient, FuGENE 6), membranes
T3 sequence (P32214 25-479 isoform P32214-2 limits assumed): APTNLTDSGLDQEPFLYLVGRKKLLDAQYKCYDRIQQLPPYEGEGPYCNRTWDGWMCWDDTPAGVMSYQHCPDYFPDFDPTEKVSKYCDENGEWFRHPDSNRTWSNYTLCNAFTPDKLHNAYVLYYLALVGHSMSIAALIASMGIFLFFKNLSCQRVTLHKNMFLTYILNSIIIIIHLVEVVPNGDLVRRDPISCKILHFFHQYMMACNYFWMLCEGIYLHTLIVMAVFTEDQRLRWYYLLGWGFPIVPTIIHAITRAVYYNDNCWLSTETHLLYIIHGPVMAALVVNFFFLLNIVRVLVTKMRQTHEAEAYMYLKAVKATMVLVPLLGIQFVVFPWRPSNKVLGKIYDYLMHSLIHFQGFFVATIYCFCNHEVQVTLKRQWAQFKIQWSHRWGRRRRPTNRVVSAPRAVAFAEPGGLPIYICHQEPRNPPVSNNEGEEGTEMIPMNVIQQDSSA
T3 sequence (Q9JJ73 23-147 partner): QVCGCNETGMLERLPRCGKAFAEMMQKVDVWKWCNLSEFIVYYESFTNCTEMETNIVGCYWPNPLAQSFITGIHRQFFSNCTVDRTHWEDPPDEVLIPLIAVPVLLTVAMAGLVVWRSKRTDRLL
In words: ASSAY (VI) binding to the rat amylin receptor. In short, it runs like this:
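Membranes for this rat amylin receptor binding assay came from BHK tk′ts 13 cells. The cells were transiently transfected with rat calcitonin receptor using the FuGENE® 6 reagent from Roche, as the manufacturer recommends. The cells were collected approximately 48 hours after transfection, and membranes were then prepared.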

Molecules are shown by their SMILES. Numbered stars: 1 amine (or outer) side, 2 acyl side, 3 side chain; on linkers, the order of the positions; unused ones are H or OH. Bridge positions count the residues as written; N and C are the ends. Side chains are listed from the residue outwards. Peptide text beside a SMILES is read from it. * marks the point of attachment. C20 diacid = O=C(O)CCCCCCCCCCCCCCCCCCC(=O)*; γGlu = O=C(O)[C@H](CCC(=O)[*:2])N[*:1]

`CC[C@H](C)[C@H](NC(=O)[C@H](C)NC(=O)CNC(=O)[C@H](Cc1ccccc1)NC(=O)[C@H](CC(N)=O)NC(=O)[C@@H]1CCCN1C(=O)[C@H](CO)NC(=O)[C@H](CO)NC(=O)[C@H](Cc1c[nH]cn1)NC(=O)[C@H](CCCNC(=N)N)NC(=O)[C@H](CC(C)C)NC(=O)[C@H](Cc1ccccc1)NC(=O)[C@H](C)NC(=O)[C@H](C)NC(=O)[C@H](CC(C)C)NC(=O)[C@H](CCCNC(=N)N)NC(=O)[C@H](CCC(N)=O)NC(=O)[C@@H](NC(=O)[C@H](C)NC(=O)[C@@H]1CSSC[C@H](NC(=O)[C@@H](N)CCCCNC(=O)CC[C@H](NC(=O)CCCCCCCCCCCCCCCCCCC(=O)O)C(=O)O)C(=O)N[C@@H](CC(N)=O)C(=O)N[C@@H]([C@@H](C)O)C(=O)N[C@@H](C)C(=O)N[C@@H]([C@@H](C)O)C(=O)N1)[C@@H](C)O)C(=O)N1CCC[C@H]1C(=O)N[C@@H](CO)C(=O)N[C@@H](CO)C(=O)N[C@H](C(=O)N[C@@H](CC(N)=O)C(=O)N[C@H](C(=O)NCC(=O)N1CCC[C@H]1C(=O)N[C@@H](CC(N)=O)C(=O)N[C@H](C(=O)N[C@@H](Cc1ccc(O)cc1)C(N)=O)[C@@H](C)O)C(C)C)[C@@H](C)O` [Example 94] (H-K([γGlu-C20 diacid])CNTATCATQRLAAFLRHSSPNFGAIPSSTNVGPNTY-NH2; disulfide 2-7 (inferred)): the EC50 in experiment [1] came out at 0.316 nM. Also, the IC50 in experiment [2] was determined as 6.86 nM; in experiment [3] (Table 7, binding to rat amylin receptor, read-out: rAmylin-R bind IC50) it was 0.397 nM. In addition, the “Ratio rCT/rAmylin binding” value in experiment [3] (Table 7, rat binding selectivity, rCTR IC50 / rAmylin-R IC50) was determined as 280.1; in experiment [3] (Table 7a (preferred compounds), rat binding selectivity, rCTR IC50 / rAmylin-R IC50), 280.1; in experiment [3] (ratio of rCTR bind IC50 to rAmylin-R bind IC50), 280.1.
